Data from ChEMBL document CHEMBL3045264, “Synthesis and antimicrobial activity of 5-((3-aryl-1-phenyl-1H-pyrazol-4-yl)methylene)thiazolidine-2,4-diones” (2012).
In brackets after ≈: the same amount, converted by molar mass. Activity calls are given as the source filed them. The rule behind the calls is not given here.

Legend:
[1] = system: Bacillus subtilis; experiment: Antibacterial activity against Bacillus subtilis MTCC 121 at 4 mg/ml after 24 hr by agar well diffusion method; type: functional; settings: MTCC 121, 24 h, read-out: DIZ
[2] = system: Staphylococcus aureus; experiment: Antibacterial activity against Staphylococcus aureus MTCC 96 after 24 hr by macro dilution tube method; type: functional; settings: MTCC 96, 24 h
[3] = system: Bacillus subtilis; experiment: Antibacterial activity against Bacillus subtilis MTCC 121 after 24 hr by macro dilution tube method; type: functional; settings: MTCC 121, 24 h
[4] = system: Pseudomonas aeruginosa; settings: MTCC 741, 4 mg/ml
Description: (§1) Antibacterial activity against Pseudomonas aeruginosa MTCC 741 at 4 mg/ml after 24 hr by agar well diffusion method

[5] = system: Aspergillus niger; experiment: Growth inhibition of Aspergillus niger at 4 mg/ml after 7 days by poisoned food technique; type: functional; settings: 168 h, read-out: GI
[6] = system: Escherichia coli; experiment: Antibacterial activity against Escherichia coli MTCC 1652 at 4 mg/ml after 24 hr by agar well diffusion method; type: functional, organism-based
[7] = system: Staphylococcus aureus; experiment: Antibacterial activity against Staphylococcus aureus MTCC 96 at 4 mg/ml after 24 hr by agar well diffusion method; type: functional; settings: MTCC 96, 24 h, read-out: DIZ
[8] = system: Aspergillus flavus; experiment: Growth inhibition of Aspergillus flavus at 4 mg/ml after 7 days by poisoned food technique; type: functional; settings: 168 h, read-out: GI
[9] = system: Pseudomonas aeruginosa; experiment: microbe, parasite or virus in culture; settings: MTCC 741, 24 h, read-out: DIZ
Description: as §1

| SMILES | zone of inhibition at 4000 µg/mL [1] [mm] | MIC [2] [µg/mL] | MIC [3] [µg/mL] | DIZ [4] | inhibition of growth at 4000 µg/mL [5] [%] | diameter of the inhibition zone (DIZ) [6] | zone of inhibition at 4000 µg/mL [7] [mm] | inhibition of growth at 4000 µg/mL [8] [%] | zone of inhibition at 4000 µg/mL [9] [mm] |
| --- | --- | --- | --- | --- | --- | --- | --- | --- | --- |
| Cc1ccc(-c2nn(-c3ccccc3)cc2/C=C2\SC(=O)NC2=O)cc1 | 15.6 | 128 (≈ 354 µM) | 128 (≈ 354 µM) | inactive | 68.8 | inactive | 16.3 | 65.5 | – |
| O=C1NC(=O)/C(=C/c2cn(-c3ccccc3)nc2-c2ccc(O)cc2)S1 | 14.6 | 128 (≈ 352 µM) | 128 (≈ 352 µM) | inactive | 55.5 | inactive | 15 | 54.4 | – |
| O=C1NC(=O)/C(=C/c2cn(-c3ccccc3)nc2-c2ccc(Cl)cc2)S1 | 15 | 128 (≈ 335 µM) | 128 (≈ 335 µM) | inactive | 65.5 | inactive | 14.3 | 60 | – |
| O=C(O)c1cn(C2CC2)c2cc(N3CCNCC3)c(F)cc2c1=O [CIPROFLOXACIN] | 24 | 5 (≈ 15.1 µM) | 5 (≈ 15.1 µM) | – | – | – | 26 | – | 22 |
| COc1ccc(-c2nn(-c3ccccc3)cc2/C=C2\SC(=O)NC2=O)cc1 | 14.3 | 128 (≈ 339 µM) | 128 (≈ 339 µM) | inactive | 60 | inactive | 13.6 | 57.7 | – |
| O=C1NC(=O)/C(=C/c2cn(-c3ccccc3)nc2-c2ccccc2)S1 | 16 | 32 (≈ 92.1 µM) | 128 (≈ 368 µM) | inactive | 62.5 | inactive | 20.3 | 60 | – |
| O=C1NC(=O)/C(=C/c2cn(-c3ccccc3)nc2-c2ccc([N+](=O)[O-])cc2)S1 | 21.3 | 16 (≈ 40.8 µM) | 32 (≈ 81.6 µM) | inactive | 61.1 | inactive | 23.6 | 63.3 | – |
| O=C1NC(=O)/C(=C/c2cn(-c3ccccc3)nc2-c2ccc(Br)cc2)S1 | 21.6 | 64 (≈ 150 µM) | 32 (≈ 75.1 µM) | inactive | 61.1 | inactive | 18.6 | 62.5 | – |
| OC(Cn1cncn1)(Cn1cncn1)c1ccc(F)cc1F [FLUCONAZOLE] | – | – | – | – | 81.1 | – | – | 77.7 | – |
| O=C1NC(=O)/C(=C/c2cn(-c3ccccc3)nc2-c2ccc(F)cc2)S1 | 21.6 | 32 (≈ 87.6 µM) | 32 (≈ 87.6 µM) | inactive | 82.5 | inactive | 20.6 | 78.8 | – |
